The text below walks through data of US20060189539A1, “Novel GnRH analogues with antitumour effects and pharmaceutical compositions thereof” (priority 1994, published 2006).

Non-standard residues stand in square brackets, D forms with d. Residues, ends and D or L forms follow the SMILES beside them. Groups on a side chain read outwards from the residue. *: point of attachment. dPhe(4-Cl) = N[C@H](Cc1ccc(Cl)cc1)C(=O)O; NEt2 = CCN(CC)*

Test [1] relates to MDA-MB-231 human mammary carcinoma cell line. Briefly: Inhibition of colony formation (dose-survival), Example 48. It counts as cell-based. An excerpt:
(§1) MCF-7 human mammary carcinoma cell line was stabilized in 1973 by Soule et al. from the pleural fluid of a patient suffering from mammary carcinoma. MDA-MB-231 human mammary carcinoma cell line was isolated and stabilized by Cailleau et al. in 1974 similarly from pleural fluid. Both cell lines grow in monolayer. MCF-7 and MDA-MB-231 human mammary carcinoma cell lines are maintained in plastic flasks (Greiner), in Dulbecco-modified Eagle-MEM (DMEM, GIBCO) liquid nutrient medium containing 10% of fetal calf serum. MCF-7 cell line is estradiol receptor (ER)-positive containing proteins specifically binding GnRH. Thus, it represents, a useful model system for investigating the direct effect of GnRH mediated by the GnRH receptor. Being ER-negative and GnRH receptor-positive, MDA-MB-231 cell line is similarly suitable to study the direct effect of GnRH. PC3 human prostate carcinoma cell line was stabilized in cell culture by Kaighn et al. in 1979. The cells are of epithelial type and form compact colonies in clonogenic assays. The Ishikawa cell line originates from human endometrial adenocarcinoma [M. Nishida et al.: Acta Obstet. Gynecol. Jpn. 37, 1103-1111 (1985)], it is epithelial in its character and contains steroid-as well as GnRH receptors.
(§2) The examination gives accurate information about the cell-damaging effect of the substance tested as a function of varying doses. The treatment was carried out once; the colonies formed from the surviving cells were counted after 8-12 days. […] A part of the arrested cells again entered the cycle, an other part of them might be destroyed (apoptosis). […] In the case of a dose-response investigation, colonies containing less than 15 cells were not counted. 300 cells were put into each Petri dishes of 3.5 cm in diameter. The treatment was once carried out 24 hours after setting, then the colonies formed were counted after 8-12 days. The cells were treated once after 24 hours with 1-50 μM of various GnRH analogues of Examples above or with 1-50 μM of GnRH-III, respectively. The percentages of inhibition obtained on MCF-7, MDA-MB-231, PC3 and Ishikawa cells, respectively, together with the dose of the active agent used are shown in Table VIII.

The next test relates to human tumor cell lines. Briefly: Colony formation, Example 48, comparison with control D-Trp6-hGnRH. Format: cell-based. To be noted: data of Table VIII. As to the method:
as §2
In these studies the D-Trp6-hGnRH analogue (Sigma Co.) commonly used in the tumour therapy was employed as control.

Test [2] relates to PC3 human prostate carcinoma cell line. Briefly: Inhibition of colony formation (dose-survival), Example 18. Format: cell-based. An excerpt:
(§3) Human cell lines used in in vitro experiments. MCF-7 human mammary tumour cell line was stabilized in 1973 by Soule et al. from the pleural fluid of mammary carcinoma patients. The cells grow in monolayer and are epithelial in their character. MDA-MB-231 human mammary carcinoma cell line was isolated and stabilized in 1974 by Cailleau et al. similarly from pleural fluid. These cells also grow in monolayer. PC3 human prostate carcinoma cell line was stabilized 20 in 1979 in cell culture by Kaighn et al.; the cells are of simple epithelium type and form compact colonies in clonogenic assays. Ishikawa cell line originated from adenocarcinoma of human endometrium [Nishida et al.: Obstet. Gynecol. Jpn, 37, 25 1103-1111 (1985)], has epithelial character and contains steroid as well as GnRH receptors. Human tumour cell lines are maintained in plastic flasks (Greiner) in Dulbecco-6modified Eagle-MEM (DMEM GIBCO) nutritive medium. The medium used herein contained 10% of fetal calf serum (FCS).
(§4) In the case of cytostatics the cell-damaging effect is not cell-specific. […] One part of the arrested cells again go into the cycle, the other part may perish (apoptosis). […] The investigations were carried out on MCF-7 and MDA-MB-231 human mammary carcinoma cell lines, PC3 human prostate 15 carcinoma cell line and Ishikawa human endometrium carcinoma cell line. Threehundred cells were set into Petri dishes of 3.5 cm in diameter each. The treatment was carried out once, 24 hours following the explantation, then the colonies formed were counted after 9 to 12 days.

In test [3] the test system is MDA-MB-231 human mammary carcinoma cell line. Described as above. To be noted: 50 μM. It counts as cell-based.
From the text: as §3, §4

In test [4] the test system is Ishikawa human endometrium carcinoma cell line. The description is as above. Format: cell-based. The conditions noted are these: 50 μM.
From the text: as §3, §4

Test [5] deals with MCF-7 human mammary carcinoma cell line. Described as above. Format: cell-based. To be noted: 50 μM.
From the text: as §3, §4

Test [6] concerns PC3 prostate tumour cell culture. Briefly: Inhibition of colony formation (dose-survival), Example 48. It counts as cell-based, human.
From the text: as §1, §2

Test [7] relates to Ishikawa endometrium tumour cell culture. Described as above. To be noted: 50 μM. It counts as cell-based, human.
From the text: as §1, §2

Test [8] relates to MCF-7 human mammary carcinoma cell line. Described as above. Format: cell-based. To be noted: 50 μM. An excerpt:
MCF-7 human mammary carcinoma cell line was stabilized in 1973 by Soule et al. from the pleural fluid of a patient suffering from mammary carcinoma. MDA-MB-231 human mammary carcinoma cell line was isolated and stabilized by Cailleau et al. in 1974 similarly from pleural fluid. Both cell lines grow in monolayer. […] MCF-7 cell line is estradiol receptor (ER)-positive containing proteins specifically binding GnRH. Thus, it represents, a useful model system for investigating the direct effect of GnRH mediated by the GnRH receptor. Being ER-negative and GnRH receptor-positive, MDA-MB-231 cell line is similarly suitable to study the direct effect of GnRH. PC3 human prostate carcinoma cell line was stabilized in cell culture by Kaighn et al. in 1979. The cells are of epithelial type and form compact colonies in clonogenic assays. The Ishikawa cell line originates from human endometrial adenocarcinoma [M. Nishida et al.: Acta Obstet. Gynecol. Jpn. 37, 1103-1111 (1985)], it is epithelial in its character and contains steroid-as well as GnRH receptors. The examination gives accurate information about the cell-damaging effect of the substance tested as a function of varying doses. The treatment was carried out once; the colonies formed from the surviving cells were counted after 8-12 days. […] A part of the arrested cells again entered the cycle, an other part of them might be destroyed (apoptosis). […] The treatment was once carried out 24 hours after setting, then the colonies formed were counted after 8-12 days. The cells were treated once after 24 hours with 1-50 μM of various GnRH analogues of Examples above or with 1-50 μM of GnRH-III, respectively. The percentages of inhibition obtained on MCF-7, MDA-MB-231, PC3 and Ishikawa cells, respectively, together with the dose of the active agent used are shown in Table VIII.

Another test concerns B-lymphocytes. Briefly: Humoral immune response (antibody production of B-lymphocytes). To be noted: for Increase of the humoral immune response: mice. Format: in vivo, mice.
The test system of the next test is MCF-7 xenograft. Briefly: In vivo antitumour effect on MCF-7 xenograft. Further details: species or system immunosuppressed CBA/Ca mice. The conditions noted are these: 2 × 25 μg. As to the method: The immunosuppression of mice was carried out by using the method of Steel et al. (1978).
CBA/Ca female mice of about 6 weeks old were thymectomized and then, after one week, they were irradiated with 60Co (whole body irradiation; the lethal dose is 9.5 Gray). Within 24 hours 3 to 5×10^5 myelocytes were injected to the animals. Beneath the skin of the immunosuppressed mice 2×10^7 tumour cells or, in the case of later passages, about 2 mm^3 of tumour cells or in the case of later, additional passages about 2 mm^3 of tumour pieces were implanted. […] The treatment with steroid hormone was stopped by at least one week before beginning the investigation.
In the case of MCF-7 tumours (xenografts) the examinations were carried out with passages being in the phase of the 37th and 38th, respectively, transplantations.
In the case of mice bearing MCF-7 xenograft, the treatment was begun in the 4th week following xeno-transplantation.
Recent investigations have begun on 28 animals bearing MCF-7 xenograft .and on 28 animals bearing MDA-MB-231 xenograft. On animals bearing MCF-7 tumour the treatment was commenced in the 5th week following xeno-transplantation; the tumour volume was 205 to 225 mm^3. On animals bearing MDA-MB-231 tumour, the treatment was started in the 4th week after xeno-transplantation with a tumour volume of 140 to 150 mm^3. […] The control groups were daily treated with physiological saline s.c. (Each treated group consisted of 7 animals.)

In the next test the test system is T-lymphocytes. The test is described as follows: Cellular immune response (rosette formation against BRBC antigen). It counts as in vivo, mice. An excerpt:
The immunosuppressive side effect of cytostatics used in tumour therapy is commonly known. This effect can be compensated to a certain grade by various immunostimulants (endotoxin, levamisole). Polypeptides with much […] molecular weights (about 40,000 to 80,000) are also capable of protecting against immunosuppressive effect [Gal et al.: J. Biol. Resp. Modif. 5, 148-159 (1986)). The molecular weight of the novel polyanionic P-GFLG-OH macromolecule tested by us is about 10,000, that of MI-1892 is about 2000, i.e. relatively low; therefore, their immunostimulatory activity was unexpected.

Test [9] deals with Ishikawa human endometrium tumour cells. The conditions noted are these: 30 μM of active substance, conjugate, treated once. An excerpt: The procedure of treatment was as follows. After trypsinization the cells, 400,000 cells of MCF-7, MDA-MB-231 human mammary carcinoma, PC3 human prostate carcinoma or Ishikawa human endometrium tumour each were passed into Petri dishes of 10 cm in diameter. […]

Test [10] relates to PC3 human prostate carcinoma cells. Briefly: In vitro inhibition of cell proliferation (cell count), Example 19. Format: cell-based. The conditions noted are these: 30 μM of active substance, conjugate, treated once. The protocol: The procedure of treatment was as follows. After trypsinization the cells, 400,000 cells of MCF-7, MDA-MB-231 human mammary carcinoma, PC3 human prostate carcinoma or Ishikawa human endometrium tumour each were passed into Petri dishes of 10 cm in diameter. Starting from the day following transfer, the cells were treated with the substances to be tested in solution prepared with the nutrient medium during the exponential growth phase. […]

In the case of `NCCCC[C@H](NC(=O)[C@H](Cc1c[nH]c2ccccc12)NC(=O)[C@H](Cc1c[nH]cn1)NC(=O)[C@@H]1CCC(=O)N1)C(=O)N[C@@H](Cc1c[nH]cn1)C(=O)N[C@@H](CC(=O)O)C(=O)N[C@@H](Cc1c[nH]c2ccccc12)C(=O)N[C@@H](CCCCN)C(=O)N1CCC[C@H]1C(=O)NCC(N)=O` [Compound 6, Lys^4-GnRH-III], the “% Inhibition of colony formation” value in test [1] (10 μM) was 18%; in test [1] (50 μM) it was 35%; in test [2] (50 μM) it was “did not show any inhibition”; in test [3] it was 35%; in test [4], 21%; in test [5] it was 40%. Moreover, the entries for the “% Inhibition of colony formation” value in [6] (50 μM), in test [7] and in [8] were 0%, 21% and 40%, respectively. In addition, the “Inhibitory effect on colony formation compared with control D-Trp6-hGnRH” value with human tumor cell lines is listed as “exceeded the inhibitory effect of control”. In addition, the “Effect on colony-forming ability” value in test [6] (within the dose range used (1-50 μM)) is reported as “did not influence”.

`CCN(CC)C(=O)[C@H](CC(=O)N[C@@H](CC(C)C)C(=O)N[C@@H](CCC(N)=O)C(=O)N1CCC[C@H]1C(=O)N[C@H](C)C(N)=O)NC(=O)[C@H](CCCCN)NC(=O)[C@H](CO)NC(=O)[C@@H](Cc1c[nH]c2ccccc12)NC(=O)[C@@H](Cc1ccc(Cl)cc1)NC(=O)[C@@H](Cc1c[nH]c2ccccc12)NC(C)=O` [MI-1892, Ac-D-Trp^1,3,D-Cpa^2,Lys^5,[β-Asp(DEA)]^6,D-Ala^10-hGnRH, reference compound] (Ac-[dW][dPhe(4-Cl)][dW]SKD([Leu-Gln-Pro-dA-NH2])-NEt2): the “Effect on the humoral immune response” value in the test with B-lymphocytes (dose not stated) is “strengthened”. Besides, the entries for the “Increase of the humoral immune response” value in the test on B-lymphocytes (50 μg/mouse) and in the test with B-lymphocytes (100 μg/mouse) were “more than twofold” and “threefold”, respectively. The Inhibition % in the test on MCF-7 xenograft (week 4) amounted to 22.5%; in the test on MCF-7 xenograft (week 6) it was 21%. Also, the “Increase of the cellular immune response” value in the test with T-lymphocytes (100 μg/mouse) is listed as “nearly twofold”. For the same compound, the “Effect on the cellular immune response (activity of T-lymphocytes against BRBC antigen)” value with T-lymphocytes (dose not stated) is on record as “increased”.

As to “D-Phe2,D-Trp3,{D-Lys[n-poly(N-vinylpyrrolidone-co-maleic acid)-Gly-Phe-Leu-Gly-]}6.-GNRH [P-GFLG-1004]”, the “% Inhibition of cell division” value in [9] was found to be 20%; in test [10], 35%. In addition, the “% Inhibition of colony formation” value in [2] (30 μM) worked out at 100%; in test [4] it was 46%; in test [8], 44%.

As to “{Lys[n-poly(N-vinylpyrrolidone-co-maleic acid)-Gly-Phe-Leu-Gly-]}4,-GnRH-III [P-GFLG-Lys4-GnRH-III]”, the “% Inhibition of colony formation” value was 94% in test [2] (30 μM), 75% in [3], 25% in test [4] and 68% in [5].
